These compounds were tested against T1, human recombinant Yes [a.a. 2–543 (end)] (Homo sapiens, UniProt P07947) (assay: ADP-Glo kinase assay, inhibition rates of Yes phosphorylation activity (first and second screening)). Conditions: first screening; mean of n = 4 wells; 10 μmol L−1 compound.
T1 construct: human recombinant Yes [a.a; 2–543 (end)]; purchased BPS Bioscience 40488
Type: biochemical
Procedure, shortened: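 Hits from a first pass were rescreened after re-dissolution from fresh powder. The first pass reported the mean inhibition rate of quadruplicate wells per compound. Activity was that of recombinant human Yes [a.a. 2–543] kinase, read out with the ADP-Glo ADP-detection method.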

T1 sequence (P07947 2-543): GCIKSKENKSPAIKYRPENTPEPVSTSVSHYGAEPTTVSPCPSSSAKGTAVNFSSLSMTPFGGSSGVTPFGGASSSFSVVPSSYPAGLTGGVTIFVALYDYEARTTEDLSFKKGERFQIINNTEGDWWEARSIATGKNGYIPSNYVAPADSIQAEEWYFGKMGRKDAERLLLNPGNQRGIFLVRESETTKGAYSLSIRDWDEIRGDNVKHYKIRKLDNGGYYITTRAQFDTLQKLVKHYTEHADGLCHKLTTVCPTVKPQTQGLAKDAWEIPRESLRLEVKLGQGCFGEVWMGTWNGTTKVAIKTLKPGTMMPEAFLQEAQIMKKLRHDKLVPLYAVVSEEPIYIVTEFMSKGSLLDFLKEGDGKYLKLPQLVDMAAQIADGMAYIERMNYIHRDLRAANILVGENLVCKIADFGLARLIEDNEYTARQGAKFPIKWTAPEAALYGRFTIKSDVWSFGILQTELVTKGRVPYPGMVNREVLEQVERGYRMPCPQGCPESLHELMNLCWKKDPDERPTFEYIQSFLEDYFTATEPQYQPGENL

| SMILES | First screening IR (inhibition rate) [%] |
| --- | --- |
| Cn1c(O)c(N=NC(=O)c2ccc(COc3ccccc3-c3ccccc3)cc2)c2ccccc21 [Compound Z44853786] | 9 |
| COc1ccc(CSCc2nc(N)nc(Nc3ccccc3C)n2)cc1F [Compound Z45342622] | 6 |
| Cc1ccccc1Nc1nc(N)nc(CSCC(=O)N2CCCCC2)n1 [Compound Z45354084] | 18 |
| Cc1ccccc1Nc1nc(N)nc(CSc2ccc(C(F)(F)F)cn2)n1 [Compound Z45354574] | 12 |
| O=[N+]([O-])c1ccc2nc(CSc3ccc(C(F)(F)F)cn3)[nH]c2c1 [Compound Z45358726] | 7 |
| CCc1ccccc1Nc1nc(N)nc(CSCC(=O)c2cc(C)n(C)c2C)n1 [Compound Z45360560] | -2 |
| Cc1ccc(S(=O)(=O)N2CCN(S(=O)(=O)c3ccc(C)c(C)c3)CC2)cc1C [Compound Z45415135] | -5 |
| NS(=O)(=O)c1ccc(S(=O)(=O)N2CCCC2)cc1 [Compound Z45415601] | -6 |
| CCN(CC)S(=O)(=O)c1ccc(S(N)(=O)=O)cc1 [Compound Z45415602] | 1 |
| CN(C)S(=O)(=O)c1ccc(S(N)(=O)=O)cc1 [Compound Z45415603] | 11 |
| CCCN(S(=O)(=O)c1ccc(C)cc1)S(=O)(=O)c1ccc(Cl)cc1 [Compound Z45422005] | 3 |
| CCCN(S(=O)(=O)c1ccc(Cl)cc1)S(=O)(=O)c1ccc(C)cc1C [Compound Z45422032] | 5 |
| CCN(C1CCS(=O)(=O)C1)S(=O)(=O)c1ccc(Br)cc1 (stereo not drawn) [Compound Z45467079] | 4 |
| CCN(C1CCS(=O)(=O)C1)S(=O)(=O)c1ccc(C)cc1 (stereo not drawn) [Compound Z45467092] | 9 |
| CCN(C1CCS(=O)(=O)C1)S(=O)(=O)c1ccc(Cl)c(Cl)c1 (stereo not drawn) [Compound Z45467101] | 12 |
| CCN(C1CCS(=O)(=O)C1)S(=O)(=O)c1ccc(C)c(C)c1 (stereo not drawn) [Compound Z45467115] | 10 |
| CCN(C1CCS(=O)(=O)C1)S(=O)(=O)c1ccc(Br)cc1Cl (stereo not drawn) [Compound Z45467139] | 2 |
| CCN(C1CCS(=O)(=O)C1)S(=O)(=O)c1c(C)c(C)c(C)c(C)c1C (stereo not drawn) [Compound Z45467174] | 8 |
| CCN(C1CCS(=O)(=O)C1)S(=O)(=O)c1c(C)noc1C (stereo not drawn) [Compound Z45467189] | -5 |
| COc1ccc(NC(C)=O)cc1S(=O)(=O)N(C)Cc1cccc(OC)c1OC [Compound Z45476409] | 2 |
| CC(C)CN(C1CCS(=O)(=O)C1)S(=O)(=O)c1ccc(Cl)cc1 (stereo not drawn) [Compound Z45480638] | 1 |
| CC(C)CN(C1CCS(=O)(=O)C1)S(=O)(=O)c1ccc(Cl)c(Cl)c1 (stereo not drawn) [Compound Z45480661] | 1 |
| CCCN(C1CCS(=O)(=O)C1)S(=O)(=O)c1ccccc1Cl (stereo not drawn) [Compound Z45480819] | -1 |
| CC(NS(=O)(=O)c1ccc(C(C)(C)C)cc1)c1ccc(-n2ccnc2)cc1 (stereo not drawn) [Compound Z45488256] | 12 |
| CC(C)c1ccc(S(=O)(=O)NC(C)c2ccc(-n3ccnc3)cc2)cc1 (stereo not drawn) [Compound Z45488257] | -8 |
| O=S(=O)(c1c(Cl)cccc1Cl)N1CCN(Cc2nc3ccccc3s2)CC1 [Compound Z45503858] | 3 |

| SMILES | First screening IR (inhibition rate) [%] |
| --- | --- |
| CCN(CC)S(=O)(=O)c1ccc(S(=O)(=O)N(C)C)cc1 [Compound Z45516173] | 3 |
| CCN(CC)S(=O)(=O)c1ccc(S(=O)(=O)N(C)C(C)C)cc1 [Compound Z45539789] | 11 |
| Cc1ccc(S(=O)(=O)N(C)S(=O)(=O)c2ccc(C#N)cc2)cc1 [Compound Z45549760] | 3 |
| Cc1n[nH]c(C)c1S(=O)(=O)Nc1cccc(/C=C/c2ccccn2)c1 [Compound Z45649828] | 36 |
| O=S(=O)(Nc1ccc(N2CCOCC2)cc1)c1ccc(Cl)c(C(F)(F)F)c1 [Compound Z45660528] | -2 |
| CC1CCCC(NC(=S)Nc2cccc(S(=O)(=O)N(C)C)c2)C1C (stereo not drawn) [Compound Z45768220] | 27 |
| CCN(CC)S(=O)(=O)c1ccc(OC)c(NC(=S)NCc2ccccc2)c1 [Compound Z45779271] | 13 |
| CCCCc1ccc(NC(=S)N2CC3(C)CC2CC(C)(C)C3)cc1 (stereo not drawn) [Compound Z45795780] | -6 |
| O=c1c2ccc(C(F)(F)F)cc2nc2n1CC/C2=C/c1cccnc1 [Compound Z45931417] | 0 |
| O=C(O)c1c2c(nc3ccccc13)/C(=C\c1ccccc1)CCC2 [Compound Z46035726] | -14 |
| CC(=O)Nc1ccc(/C=C2/CCCc3c2nc2ccccc2c3C(=O)O)cc1 [Compound Z46035730] | 5 |
| COc1ccc(/C=C2/CCCc3c2nc2ccccc2c3C(=O)O)cc1 [Compound Z46035754] | 9 |
| O=C(O)c1c2c(nc3ccccc13)/C(=C\c1ccc(Cl)c(Cl)c1)CCC2 [Compound Z46035759] | 0 |
| O=C(O)c1ccc(/C=C2/CCCc3c2nc2ccccc2c3C(=O)O)cc1 [Compound Z46035770] | 1 |
| COc1cccc(/C=C2\CCCc3c2nc2ccccc2c3C(=O)O)c1 [Compound Z46035772] | 11 |
| CCOc1cc(/C=C2/CCCc3c2nc2ccccc2c3C(=O)O)ccc1OC [Compound Z46035916] | 51 |
| O=C(O)c1c2c(nc3ccccc13)/C(=C\c1ccc(O)c(Br)c1)CCC2 [Compound Z46036098] | -2 |
| O=C(/C=C/c1cn(-c2ccccc2)nc1-c1cccnc1)c1ccc(Cl)c([N+](=O)[O-])c1 [Compound Z46041361] | 19 |
| Cc1c(Nc2ccc(/C=C3/C(=O)Nc4ccc(Cl)cc43)cc2)c(=O)n(-c2ccccc2)n1C [Compound Z46051719] | 15 |
| O=C1Nc2ccccc2/C1=C\c1c(Cl)nc2sccn12 [Compound Z46060818] | 24 |
| C(=C\c1nc2cc(-c3ccccc3)ccc2o1)/c1cccnc1 [Compound Z46080472] | 11 |
| COc1cc(/C=C2/CC(C)Cc3c2nc2ccccc2c3C(=O)O)ccc1O (stereo not drawn) [Compound Z46107807] | -4 |
| CC1C/C(=C/c2ccccc2[N+](=O)[O-])c2nc3ccccc3c(C(=O)O)c2C1 (stereo not drawn) [Compound Z46107814] | 10 |
| COc1ccc(/C=C2/CC(C)Cc3c2nc2ccccc2c3C(=O)O)c(OC)c1 (stereo not drawn) [Compound Z46107821] | -10 |
| COc1ccccc1/C=C1\CC(C)Cc2c1nc1ccccc1c2C(=O)O (stereo not drawn) [Compound Z46107852] | -1 |
| CC1C/C(=C/c2ccc(Cl)c([N+](=O)[O-])c2)c2nc3ccccc3c(C(=O)O)c2C1 (stereo not drawn) [Compound Z46107857] | 11 |

Same assay, conditions: second screening, dissolved from fresh powder; n = 4; 10 μmol L−1 compound

| SMILES | Second screening IR (inhibition rate) [%] |
| --- | --- |
| Cc1n[nH]c(C)c1S(=O)(=O)Nc1cccc(/C=C/c2ccccn2)c1 [Compound Z45649828] | 0 |
| CCOc1cc(/C=C2/CCCc3c2nc2ccccc2c3C(=O)O)ccc1OC [Compound Z46035916] | -8 |

Reference: PMC5607274, “An iterative compound screening contest method for identifying target protein inhibitors using the tyrosine-protein kinase Yes” (Scientific Reports, 2017)
